The numbers were not newly measured in patent US12661351B2, “Stable liquid compositions of posaconazole” (INVENGENE PRIVATE LIMITED, priority 2020, dated 2026), which cites them from elsewhere.

Read-outs that look alike come from different tables or passages of the source.

`CC[C@@H]([C@H](C)O)n1ncn(-c2ccc(N3CCN(c4ccc(OC[C@@H]5CO[C@@](Cn6cncn6)(c6ccc(F)cc6F)C5)cc4)CC3)cc2)c1=O` [Posaconazole]: the Solubility result reads like this: (aqueous solutions at pH>4) “less than 1 mcg/ml”; (strong acidic (aqueous) solutions of pH 1 or lower) “about 790 mcg/ml”.
